Measured values reported in patent US11014934B2, “Antiseptic drug” (AO “TATKHIMFARMPREPARATY”, priority 2017, dated 2021).
Read-outs that look alike come from different tables or passages of the source.

How the values were obtained:
Format in all cases: cell-based
all bacterial strains = assay: MIC screening, summary for all bacterial strains
Experimental: A comparative assessment of the spectrum of antibacterial action was carried out on archival and clinical strains of gram-positive and gram-negative microorganisms in accordance with the [Opredeleniye chuvstvitel'nosti mikroorganizmov k antibakterial'nym preparatam (Metodicheskiye ukazaniya MUK 4.2.1890-04). Utverzhdeny i vvedeny v deystviye Glavnym gosudarstvennym sanitarnym vrachom Rossiyskoy Federatsii G. G. Onishchenko 04.03.2004 g. Determination of the sensitivity of microorganisms to antibacterial drugs (Guidelines MUK 4.2.1890-04). Approved and put into effect by the Chief State Sanitary Doctor of the Russian Federation G. G. Onishchenko on 4 Mar. 2004].
The value of the minimum inhibitory concentration (MIC) was determined by the method of serial dilutions on Müller-Hinton broth using 96-well sterile plates. […] The growth of cultures was assessed visually, comparing the growth of microorganisms in the presence of test compounds with the growth of culture without them. […] The first lowest concentration of the studied substance (from a series of consecutive dilutions), where bacterial growth is not visually determined, is considered to be the minimum inhibitory concentration (MIC). MIC was determined by the method of serial dilutions in broth with increment=2, so the differences of neighboring dilutions are not considered to be significant. […]

[1] = test system: gram-positive microorganisms in the biofilm; assay: Antibacterial activity against cells immersed in a biofilm matrix (CFU, drop plate)
Experimental: To determine the effectiveness of the antibiotic against bacteria in […], bacteria were grown in Basal medium for 3 days at a temperature of 37° C. without swinging to obtain a dense biofilm [A. R Kayumov, Khakimullina E., Sharafutdinov I, Trizna E., Latypova L., Lien Thi, Margulis A., Bogachev M, Kurbangalieva A. Inhibition of biofilm formation in Bacillus subtilis by new halogenated furanoses. J. Antibiotics.—2014.—V. 68.—No 5.—P. 297-301.]. Then the biofilm was washed with a sterile 0.9% NaCl solution and fresh sterile medium was poured. Antiseptics were added to concentrations (1-16)×MBC (minimum bactericidal concentration) and incubated for 24 hours. Then the culture fluid was removed from the wells, washed once with 0.9% NaCl solution to remove non-adherent cells, and cell viability in biofilms was evaluated by counting CFU by Drop plate analysis [B. Herigstad, M Hamilton, J. Heersink How to optimize the drop plate method for enumerating bacteria. J Microbiol Methods.—2001.—V. 44.—P. 121-129]. To do this, the biofilm was mechanically removed from the surface and homogenized in 0.9% NaCl by pipetting and ultrasonic treatment. Then, serial 10-fold dilutions of the bacterial suspension in 0.9% NaCl were prepared, and 5 μI of each suspension were transferred to plates with dense nutrient medium. CFU was counted from drops containing 5-10 colonies.
The results of the study of antimicrobial activity against cells of the studied strains immersed in the biofilm matrix, in comparison with miramistin and benzalkonium chloride, are presented in FIGS. 1 and 2.

Asp. fumigates = assay: Sensitivity of microscopic fungi in solution (colonies after exposure)
Experimental: (§1) For the preparation of inoculum, were respectively used pure (2-5) days cultures of yeast and mycelial fungi, grown on Saburo's dense nutrient broth. Inoculum for plating was prepared in different ways, depending on the type of fungi. Thus, yeast crops (C. albicans) were prepared by washing the culture from an agar stroke. Cultures of mycelial fungi (Rh. oryzae, Asp. fumigatus) were pre-degraded in a pounder. A suspension of microorganisms was prepared in a sterile isotonic sodium chloride solution, bringing the inoculum density to 5 UNITS (GISK [State Research Institute of Standardization and Control] named after L. A. Tarasevich) or according to the McFarland standard 1 UNIT with a concentration of at least 1×10^6 CFU/ml, considering that the size of the fungal elements is approximately 10 times the size of bacteria (this provided the possibility of creating a mixture of biocide with suspension, the concentration of microorganisms of the order of 1×10^5 CFU/ml).
(§2) Solutions of compound I, miramistin, and benzalkonium chloride in working concentrations (0.1%, 0.2%, 0.3%) were poured into sterile 0.9 ml tubes. 0.1 ml of microbial suspension was added to test tubes with disinfectant solutions and mixed by shaking for several seconds. The exposition lasted for 1, 5, and 15 minutes. After required temporary exposure for action of the disinfectant, 0.5 ml of the neutralizer solution was added and mixed by shaking.
(§3) Then, 0.1 ml of the mixture was inoculated on a dense nutrient medium and the plates with inoculate were placed in a thermostat with a temperature of 27° C. for (2-4) days for yeast and (5-7) days for mycelial fungi, respectively.
(§4) After the time required for the cultivation of microorganisms of this species, the results were counted according to the number of colonies grown on the Petri dish. In the absence of growth, the time for culturing microorganisms was increased by a factor of 2. The grown colonies were subjected to microscopy.
(§5) The tested substances were studied on clinical and archival strains of yeast and mycelial fungi. As comparison drugs, drugs commonly used in clinical practice were used: miramistin and benzalconium chloride. After the required exposure time for action of the disinfectant, a series of 0.1 ml mixture was aseptically plated on the surface of a dense nutrient medium in Petri dishes. After the time of cultivation of microorganisms, the results were counted according to the number of colonies grown on the Petri dish.

C. albicans = assay: as above
Experimental: as §1, §2, §3, §4, §5

Row | Compound | MIC (all bacterial strains; read-out: MIC100) | higher activity compared to miramistin and benzalkonium chloride ([1]; same decrease of CFU at lower excess of MBC) | Number of colonies grown in a Petri dish (Asp. fumigates; exposure 5 min, 0.1% solution) | Number of colonies grown in a Petri dish (C. albicans; exposure 1 min, 0.1% solution) | Number of colonies grown in a Petri dish (C. albicans; exposure 5 min, 0.1% solution) | MIC (all bacterial strains; all bacterial strains, read-out: MIC89) | less active than benzalkonium chloride [1] | Number of colonies grown in a Petri dish (Asp. fumigates; exposure 1 min, 0.1% solution) | Number of colonies grown in a Petri dish (Asp. fumigates; exposure 1 min, 0.2% solution) | Number of colonies grown in a Petri dish (Asp. fumigates; exposure 15 min, 0.1% solution) | Number of colonies grown in a Petri dish (C. albicans; exposure 1 min, 0.2% solution)
1 | CCCCCCCCCCCC[N+](C)(C)Cc1cnc(C[N+](C)(C)CCCCCCCCCCCC)c2c1COC(CC)O2 (centres unmarked) [Compound I, 5,8-(Bis(methylene (N, N-dimethyl-N-dodecylammonium))-2-ethyl-4H-[1,3]dioxino [4,5-c]pyridiniumdichloride] | < 64 µg/mL | 2 fold | 1 | 3 | 1 |  |  |  |  |  | 
2 | CCCCCCCCCCCCCC(=O)NCCC[N+](C)(C)Cc1ccccc1.O.[Cl-] [Miramistin, benzyldimethyl [3-(myristoylamino)propyl]-ammonium chloride monohydrate] |  |  | 12 | 12 | 7 | < 64 µg/mL | 2 times | 20 | 10 | 2 | 5
